In assay [1] the target is T1, Aurora kinase A (Homo sapiens) (UniProt O14965).
T1 sequence (whole entry): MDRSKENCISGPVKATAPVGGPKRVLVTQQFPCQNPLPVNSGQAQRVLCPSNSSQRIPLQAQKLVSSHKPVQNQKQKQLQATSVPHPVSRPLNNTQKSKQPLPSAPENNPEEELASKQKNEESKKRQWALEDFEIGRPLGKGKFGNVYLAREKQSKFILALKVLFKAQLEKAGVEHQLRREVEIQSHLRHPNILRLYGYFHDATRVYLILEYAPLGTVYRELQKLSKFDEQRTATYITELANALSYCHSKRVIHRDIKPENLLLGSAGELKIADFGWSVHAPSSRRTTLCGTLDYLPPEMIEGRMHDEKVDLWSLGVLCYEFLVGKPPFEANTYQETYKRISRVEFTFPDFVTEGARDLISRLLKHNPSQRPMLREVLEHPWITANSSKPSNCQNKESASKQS
Put plainly: Inhibition of AURKA (unknown origin) assessed as remaining activity at 1 uM by Kinome scan method relative to control.

Assay [2] concerns the target Epithelial discoidin domain-containing receptor 1 (Homo sapiens) (UniProt Q08345). Put plainly: Inhibition of DDR1 (unknown origin) assessed as remaining activity at 1 uM by Kinome scan method relative to control.
Assay [3] has as its target T2, Myotonin-protein kinase (Homo sapiens) (UniProt Q09013).
T2 sequence (whole entry): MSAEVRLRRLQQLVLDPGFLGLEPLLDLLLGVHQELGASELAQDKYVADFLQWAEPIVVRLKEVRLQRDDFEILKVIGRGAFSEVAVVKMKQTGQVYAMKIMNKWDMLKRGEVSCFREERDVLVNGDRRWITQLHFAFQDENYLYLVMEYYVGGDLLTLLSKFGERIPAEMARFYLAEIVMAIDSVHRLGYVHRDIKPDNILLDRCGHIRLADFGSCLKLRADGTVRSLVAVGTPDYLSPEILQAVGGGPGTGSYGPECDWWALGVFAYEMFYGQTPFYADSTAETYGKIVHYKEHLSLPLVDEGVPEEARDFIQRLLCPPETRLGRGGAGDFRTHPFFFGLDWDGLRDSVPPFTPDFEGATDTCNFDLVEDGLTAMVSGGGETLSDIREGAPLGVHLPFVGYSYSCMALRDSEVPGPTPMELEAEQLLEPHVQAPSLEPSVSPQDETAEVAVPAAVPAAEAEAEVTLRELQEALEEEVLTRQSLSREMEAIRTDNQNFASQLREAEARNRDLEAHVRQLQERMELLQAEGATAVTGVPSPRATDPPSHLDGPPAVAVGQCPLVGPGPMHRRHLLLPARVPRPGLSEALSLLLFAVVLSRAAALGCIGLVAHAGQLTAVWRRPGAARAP
Put plainly: Inhibition of DMPK (unknown origin) assessed as remaining activity at 1 uM by Kinome scan method relative to control.

Assay [4] deals with Fibroblast growth factor receptor 2 (Homo sapiens) (UniProt P21802). Description: Inhibition of FGFR2 (unknown origin) assessed as remaining activity at 1 uM by Kinome scan method relative to control.
In assay [5] the target is Rhodopsin kinase GRK1 (Homo sapiens) (UniProt Q15835). Description: Inhibition of GRK1 (unknown origin) assessed as remaining activity at 1 uM by Kinome scan method relative to control.
For assay [6], the target named is Insulin receptor (Homo sapiens) (UniProt P06213). Description: Inhibition of INSR (unknown origin) assessed as remaining activity at 1 uM by Kinome scan method relative to control.
Sequence of Insulin receptor (Homo sapiens) (P06213 28-758 limits assumed): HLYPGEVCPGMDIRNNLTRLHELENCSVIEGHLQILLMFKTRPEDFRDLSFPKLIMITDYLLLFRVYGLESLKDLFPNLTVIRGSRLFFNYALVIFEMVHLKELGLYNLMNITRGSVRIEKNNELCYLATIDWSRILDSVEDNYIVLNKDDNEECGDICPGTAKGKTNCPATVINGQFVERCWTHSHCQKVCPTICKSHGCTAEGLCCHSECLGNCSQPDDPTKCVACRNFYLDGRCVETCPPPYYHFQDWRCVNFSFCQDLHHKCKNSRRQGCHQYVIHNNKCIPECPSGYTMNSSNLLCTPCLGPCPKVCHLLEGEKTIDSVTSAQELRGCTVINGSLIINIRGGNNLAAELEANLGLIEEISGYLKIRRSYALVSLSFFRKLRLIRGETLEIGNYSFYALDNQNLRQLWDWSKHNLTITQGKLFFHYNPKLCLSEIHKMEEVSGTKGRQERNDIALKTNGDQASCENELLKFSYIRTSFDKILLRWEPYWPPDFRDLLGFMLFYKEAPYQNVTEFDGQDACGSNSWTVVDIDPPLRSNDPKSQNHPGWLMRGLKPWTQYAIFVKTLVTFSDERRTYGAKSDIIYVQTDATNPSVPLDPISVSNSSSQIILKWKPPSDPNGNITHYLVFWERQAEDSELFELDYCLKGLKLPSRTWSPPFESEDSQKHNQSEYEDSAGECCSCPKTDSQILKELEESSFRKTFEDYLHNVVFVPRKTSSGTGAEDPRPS
Sequence of Insulin receptor (Homo sapiens) (P06213 763-1382 limits assumed): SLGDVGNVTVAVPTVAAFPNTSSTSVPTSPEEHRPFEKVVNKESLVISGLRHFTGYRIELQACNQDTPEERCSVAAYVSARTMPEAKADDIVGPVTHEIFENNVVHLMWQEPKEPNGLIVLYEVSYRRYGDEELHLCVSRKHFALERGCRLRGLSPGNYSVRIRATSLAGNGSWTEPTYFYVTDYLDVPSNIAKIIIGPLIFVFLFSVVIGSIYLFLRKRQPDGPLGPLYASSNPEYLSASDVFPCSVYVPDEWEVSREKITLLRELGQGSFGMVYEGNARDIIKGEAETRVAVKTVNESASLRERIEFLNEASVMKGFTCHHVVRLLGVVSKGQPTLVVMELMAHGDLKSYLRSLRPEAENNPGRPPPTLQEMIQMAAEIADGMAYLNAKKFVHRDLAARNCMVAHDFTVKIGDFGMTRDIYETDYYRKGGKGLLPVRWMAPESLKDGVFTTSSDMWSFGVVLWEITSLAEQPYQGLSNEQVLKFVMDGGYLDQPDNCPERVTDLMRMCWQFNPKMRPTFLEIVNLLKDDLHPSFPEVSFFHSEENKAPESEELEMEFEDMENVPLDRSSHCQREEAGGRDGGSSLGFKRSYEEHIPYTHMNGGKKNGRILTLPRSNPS
Assay [7] deals with Mitogen-activated protein kinase kinase kinase 4 (Homo sapiens) (UniProt Q9Y6R4). Put plainly: Inhibition of MAP3K4 (unknown origin) assessed as remaining activity at 1 uM by Kinome scan method relative to control.
Sequence of Mitogen-activated protein kinase kinase kinase 4 (Homo sapiens) (Q9Y6R4 whole entry): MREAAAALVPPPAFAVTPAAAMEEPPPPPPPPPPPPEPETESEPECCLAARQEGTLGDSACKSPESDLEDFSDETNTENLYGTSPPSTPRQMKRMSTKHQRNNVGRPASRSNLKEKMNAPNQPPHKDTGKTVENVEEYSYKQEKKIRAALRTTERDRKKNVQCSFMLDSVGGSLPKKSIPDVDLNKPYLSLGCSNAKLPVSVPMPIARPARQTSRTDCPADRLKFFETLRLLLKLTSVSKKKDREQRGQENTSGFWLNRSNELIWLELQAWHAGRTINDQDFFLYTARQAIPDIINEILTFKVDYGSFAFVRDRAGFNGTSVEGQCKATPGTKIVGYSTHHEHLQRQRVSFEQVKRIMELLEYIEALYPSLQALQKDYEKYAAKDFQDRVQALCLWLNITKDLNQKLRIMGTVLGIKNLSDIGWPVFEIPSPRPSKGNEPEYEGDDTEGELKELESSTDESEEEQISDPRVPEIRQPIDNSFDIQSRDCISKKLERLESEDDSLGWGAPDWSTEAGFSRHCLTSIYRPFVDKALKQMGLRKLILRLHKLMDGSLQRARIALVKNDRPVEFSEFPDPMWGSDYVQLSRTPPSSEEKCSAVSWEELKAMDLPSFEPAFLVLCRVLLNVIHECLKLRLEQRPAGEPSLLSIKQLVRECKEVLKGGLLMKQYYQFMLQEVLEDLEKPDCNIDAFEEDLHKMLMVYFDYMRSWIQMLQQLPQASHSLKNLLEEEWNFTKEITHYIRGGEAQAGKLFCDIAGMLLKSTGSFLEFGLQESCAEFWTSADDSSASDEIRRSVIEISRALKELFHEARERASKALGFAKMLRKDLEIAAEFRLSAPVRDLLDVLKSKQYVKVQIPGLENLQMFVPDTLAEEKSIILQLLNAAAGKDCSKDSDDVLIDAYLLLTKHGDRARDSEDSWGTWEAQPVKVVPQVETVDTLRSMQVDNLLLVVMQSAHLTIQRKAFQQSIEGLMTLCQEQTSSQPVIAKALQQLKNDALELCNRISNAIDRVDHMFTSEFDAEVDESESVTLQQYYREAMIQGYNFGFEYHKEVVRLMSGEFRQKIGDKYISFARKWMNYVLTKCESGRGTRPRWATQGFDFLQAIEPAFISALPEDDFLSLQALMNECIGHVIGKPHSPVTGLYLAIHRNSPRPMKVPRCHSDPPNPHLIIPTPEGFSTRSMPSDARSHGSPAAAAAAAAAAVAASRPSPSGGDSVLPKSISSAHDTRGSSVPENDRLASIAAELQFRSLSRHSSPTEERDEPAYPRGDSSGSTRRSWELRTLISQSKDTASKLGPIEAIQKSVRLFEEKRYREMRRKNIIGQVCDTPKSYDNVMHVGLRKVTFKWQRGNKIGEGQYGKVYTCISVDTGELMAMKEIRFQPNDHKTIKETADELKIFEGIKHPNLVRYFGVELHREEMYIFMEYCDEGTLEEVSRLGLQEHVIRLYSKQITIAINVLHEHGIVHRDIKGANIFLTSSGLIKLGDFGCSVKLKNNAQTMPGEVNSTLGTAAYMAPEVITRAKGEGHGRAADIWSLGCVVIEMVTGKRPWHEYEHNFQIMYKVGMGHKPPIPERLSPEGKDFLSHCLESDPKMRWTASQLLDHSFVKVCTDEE
Assay [8] addresses T3, Mitogen-activated protein kinase kinase kinase kinase 2 (Homo sapiens) (UniProt Q12851).
T3 sequence (whole entry): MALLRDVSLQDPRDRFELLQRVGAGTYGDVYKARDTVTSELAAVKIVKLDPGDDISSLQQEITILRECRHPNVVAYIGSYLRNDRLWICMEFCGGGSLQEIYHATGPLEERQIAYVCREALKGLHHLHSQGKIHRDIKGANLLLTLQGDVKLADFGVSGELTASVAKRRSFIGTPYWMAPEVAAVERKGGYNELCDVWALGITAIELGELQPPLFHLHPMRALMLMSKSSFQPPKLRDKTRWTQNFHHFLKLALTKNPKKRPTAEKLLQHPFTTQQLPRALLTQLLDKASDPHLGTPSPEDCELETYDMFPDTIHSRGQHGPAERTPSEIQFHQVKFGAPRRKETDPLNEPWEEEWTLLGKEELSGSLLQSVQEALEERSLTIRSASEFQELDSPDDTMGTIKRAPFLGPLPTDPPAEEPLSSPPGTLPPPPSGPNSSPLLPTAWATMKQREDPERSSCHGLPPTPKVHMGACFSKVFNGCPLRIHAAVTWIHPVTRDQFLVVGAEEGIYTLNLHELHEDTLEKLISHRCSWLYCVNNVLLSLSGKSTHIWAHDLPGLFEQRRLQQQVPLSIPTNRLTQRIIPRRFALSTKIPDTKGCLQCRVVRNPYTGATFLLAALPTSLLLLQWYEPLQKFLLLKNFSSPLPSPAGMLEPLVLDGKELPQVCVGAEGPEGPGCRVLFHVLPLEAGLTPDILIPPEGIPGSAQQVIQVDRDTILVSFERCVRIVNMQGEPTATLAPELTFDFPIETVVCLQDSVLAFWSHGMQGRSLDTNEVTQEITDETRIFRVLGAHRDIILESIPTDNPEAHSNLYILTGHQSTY
Put plainly: Inhibition of MAP4K2 (unknown origin) assessed as remaining activity at 1 uM by Kinome scan method relative to control.

The target in assay [9] is Mitogen-activated protein kinase kinase kinase 10 (Homo sapiens) (UniProt Q02779). Put plainly: Inhibition of MLK2 (unknown origin) assessed as remaining activity at 1 uM by Kinome scan method relative to control.
Sequence of Mitogen-activated protein kinase kinase kinase 10 (Homo sapiens) (Q02779 whole entry, looked up): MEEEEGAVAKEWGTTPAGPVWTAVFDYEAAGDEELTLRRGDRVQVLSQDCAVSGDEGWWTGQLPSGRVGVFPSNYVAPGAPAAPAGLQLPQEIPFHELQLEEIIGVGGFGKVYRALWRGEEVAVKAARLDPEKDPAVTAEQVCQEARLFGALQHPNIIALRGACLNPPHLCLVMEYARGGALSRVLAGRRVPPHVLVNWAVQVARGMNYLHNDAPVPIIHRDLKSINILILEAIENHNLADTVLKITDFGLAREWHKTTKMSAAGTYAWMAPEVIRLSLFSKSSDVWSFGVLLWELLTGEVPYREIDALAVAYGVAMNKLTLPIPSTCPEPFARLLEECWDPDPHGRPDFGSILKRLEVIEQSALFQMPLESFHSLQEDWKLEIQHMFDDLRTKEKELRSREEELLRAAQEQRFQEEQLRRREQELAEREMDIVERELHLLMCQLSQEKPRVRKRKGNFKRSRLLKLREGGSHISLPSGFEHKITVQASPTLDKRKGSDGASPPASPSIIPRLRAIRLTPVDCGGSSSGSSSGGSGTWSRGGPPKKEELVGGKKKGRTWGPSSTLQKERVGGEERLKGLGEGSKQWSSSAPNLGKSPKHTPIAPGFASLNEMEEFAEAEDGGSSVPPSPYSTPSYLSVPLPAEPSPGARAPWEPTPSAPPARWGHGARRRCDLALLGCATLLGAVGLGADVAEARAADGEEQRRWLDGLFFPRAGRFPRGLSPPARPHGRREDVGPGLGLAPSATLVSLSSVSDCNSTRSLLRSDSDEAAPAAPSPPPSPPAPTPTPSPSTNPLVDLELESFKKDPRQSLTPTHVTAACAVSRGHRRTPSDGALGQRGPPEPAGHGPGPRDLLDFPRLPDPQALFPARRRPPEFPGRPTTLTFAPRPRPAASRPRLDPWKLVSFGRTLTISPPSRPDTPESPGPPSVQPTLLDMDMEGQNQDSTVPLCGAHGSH
The target in assay [10] is Cyclin-dependent kinase 16 (Homo sapiens) (UniProt Q00536). Put plainly: Inhibition of PCTK1 (unknown origin) assessed as remaining activity at 1 uM by Kinome scan method relative to control.
Sequence of Cyclin-dependent kinase 16 (Homo sapiens) (Q00536 whole entry): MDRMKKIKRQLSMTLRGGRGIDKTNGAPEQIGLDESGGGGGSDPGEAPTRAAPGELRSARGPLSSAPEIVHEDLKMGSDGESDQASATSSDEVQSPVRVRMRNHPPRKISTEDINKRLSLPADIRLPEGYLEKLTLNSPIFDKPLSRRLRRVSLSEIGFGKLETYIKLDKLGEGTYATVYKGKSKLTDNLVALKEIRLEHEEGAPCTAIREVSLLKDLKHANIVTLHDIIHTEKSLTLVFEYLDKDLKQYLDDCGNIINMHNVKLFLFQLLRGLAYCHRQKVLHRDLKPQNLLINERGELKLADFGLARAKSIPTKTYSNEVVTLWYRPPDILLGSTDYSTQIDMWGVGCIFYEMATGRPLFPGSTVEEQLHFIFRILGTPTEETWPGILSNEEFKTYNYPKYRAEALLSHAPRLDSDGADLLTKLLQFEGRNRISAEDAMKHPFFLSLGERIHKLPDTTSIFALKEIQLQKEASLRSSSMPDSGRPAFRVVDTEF
The target in assay [11] is Cyclin-dependent kinase 18 (Homo sapiens) (UniProt Q07002). Put plainly: Inhibition of PCTK3 (unknown origin) assessed as remaining activity at 1 uM by Kinome scan method relative to control.
For assay [12], the target named is Phosphatidylinositol 4,5-bisphosphate 3-kinase catalytic subunit delta isoform (Homo sapiens) (UniProt O00329). Put plainly: Inhibition of PIK3CD (unknown origin) assessed as remaining activity at 1 uM by Kinome scan method relative to control.
The target in assay [13] is Ribosomal protein S6 kinase alpha-4 (Homo sapiens) (UniProt O75676). Put plainly: Inhibition of C-terminal kinase domain RPS6KA4 (unknown origin) assessed as remaining activity at 1 uM by Kinome scan method relative to control.
Assay [14] addresses Serine/threonine-protein kinase 35 (Homo sapiens) (UniProt Q8TDR2). Put plainly: Inhibition of STK35 (unknown origin) assessed as remaining activity at 1 uM by Kinome scan method relative to control.
The target of assay [15] is TGF-beta receptor type-2 (Homo sapiens) (UniProt P37173). Put plainly: Inhibition of TGFBR2 (unknown origin) assessed as remaining activity at 1 uM by Kinome scan method relative to control.
Sequence of TGF-beta receptor type-2 (Homo sapiens) (P37173 whole entry): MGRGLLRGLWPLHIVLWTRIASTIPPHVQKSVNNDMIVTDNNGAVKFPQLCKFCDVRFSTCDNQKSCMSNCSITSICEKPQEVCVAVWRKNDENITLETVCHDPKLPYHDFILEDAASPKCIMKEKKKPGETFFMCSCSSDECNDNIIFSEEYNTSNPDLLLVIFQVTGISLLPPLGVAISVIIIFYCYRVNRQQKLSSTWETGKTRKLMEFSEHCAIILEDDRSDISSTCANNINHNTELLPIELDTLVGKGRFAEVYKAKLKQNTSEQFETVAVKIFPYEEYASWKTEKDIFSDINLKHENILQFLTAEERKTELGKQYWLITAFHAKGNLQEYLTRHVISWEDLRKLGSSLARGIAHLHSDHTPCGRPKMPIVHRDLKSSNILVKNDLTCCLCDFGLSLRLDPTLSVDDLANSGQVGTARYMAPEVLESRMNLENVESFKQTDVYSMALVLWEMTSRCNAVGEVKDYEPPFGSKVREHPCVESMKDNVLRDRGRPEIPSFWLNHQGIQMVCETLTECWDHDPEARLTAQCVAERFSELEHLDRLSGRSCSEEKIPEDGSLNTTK

Results on two compounds are retold here after ChEMBL document CHEMBL5696441 (Nat Chem Biol, 2011).

`Nc1ccccc1Nc1ccc2c(c1)CCc1ccccc1C2=O`: the Activity in [1] was 93%; in [2], 80%; in assay [3] it was 93%; in [4] it was 91%; in [5] it was 84%; in assay [6], 83%. The Activity came out at 82% in assay [7]; 99% in [8]; 92% in [9]; 98% in assay [10]; 94% in [11]; 62% in assay [12]. Also, the Activity is 85% in [13], 80% in [14] and 93% in assay [15].
In the case of `O=C1c2ccc(Nc3ccc(F)cc3F)cc2CCc2ccc(OC[C@H](O)CO)cc21` [Skepinone-L], the Activity is 100% in assay [1]; 85% in assay [2]; 76% in assay [3]; 98% in assay [4]; 76% in assay [5]; 99% in assay [6]. In addition, the Activity in assay [7] was determined as 85%; in [8], 94%; in assay [9] it was 85%; in assay [10], 85%; in [11], 78%; in assay [12] it was 70%. Moreover, the Activity in assay [13] stood at 100%; in [14], 95%; in assay [15], 100%.
